Data reported in patent publication US4782151A, “Polyprenyl compound and pharmaceutical use” (Eisai Co., Ltd., priority 1984, dated 1988).

Assays:
Pyloric Ligation Ulcer = experiment: Effect on Pyloric Ligation Ulcer; format: in vivo, Wistar strain male rats; set-up: key to Grade Index G.I. mean ± S.E.: ulcer grade 0–V by eye; larger = more ulcers, V = perforation
Experimental: According to the method of Shay et al. described in Gastroenterology, Vol 5, p. 43 (1945), Wistar strain male rats each weighing about 300 g were not given any diet for 48 hours, and then their pyloric segments were ligated. After 15 hours, the abdomen of each of the rats was opened, and the stomach was excised. The stomach was cut open along the side of the greater curvature, and the ulcers developed on the fore-stomach were classified and evaluated with the naked eye into five stages. The larger ulcer index means the more ulcers and index V refers to an example of perforation. The medicines were evaluated by determining their mean ±standard error. […] Cimetidine and propantheline were selected as control medicines.
(Note) In Table 2, Grade Index was evaluated on the basis of the size,
number, and severity of ulcers.

gastric acid secretion = experiment: Gastric acid secretion inhibiting effect (pylorus-ligated rats, method of Shay); format: in vivo, Wistar strain male rats; conditions: for inhibition in vivo at 100 mg/kg: Rattus norvegicus, 100 mg/μg (so in the source), to the duodenum during pyloric ligation, 4 hours, vs control group
Experimental: According to the method of H. Shay et a. described in Gastroenterology, Vol. 5, p. 43 (1945), Wistar strain male rats each weighing about 200 g were not given any diet for 24 hours, and their pyloric segments were ligated under etherization. After four hours, the stomachs were excised under deep etherization, and the contents of the stomachs were collected. After determination of the amount, the gastric juice was centrifuged at 3,000 rpm for 10 minutes and the supernatant liquid was titrated by neutralization (at a pH 7.0) with N/50-NaOH by means of an automatic titrator (TTA 81, Radiometer, Copenhagen) to determine the acidity. The amount of the acid which had been secreted for four hours was calculated from the volume of the gastric juice and the acidity. The results are represented in terms of % inhibition with respect to the control group. Each of the compounds tested was emulsified in a 25% decaglyn mixture (polyglycerin fatty acid ester), and 100 mg/μg (dose 0.2 ml/100 g weight) was administered to the duodenum during the ligation of the pyloric segment. In the control group, only the solvent was administered.

in vivo = conditions: mouse, po
Ethanol-Induced Ulcer = experiment: Effect on Ethanol-Induced Ulcer; format: in vivo, Wistar male rats
Experimental: According to the method of Robert et al., 1 ml/rat of absolute ethanol was administered orally to each of Wistar male rats. After one hour, the stomach of each rat was excised, 10 ml of physiologically saline solution was injected into the stomach, and the stomach was soaked in 5% neutral formalin. Each stomach was cut open along the side of the greater curvature, and the ulcers developed on the glandular stomach were measured for their lengths and the total sum of the lengths was defined as ulcer index.
Compound B, i.e. N-(2,6,10,14-tetramethyl-18-oxo-2,6,10,14-nonadecatetraenoyl)diethylamine,and compound F, i.e. N-(2,6,10,14-tetramethyl-18-oxo-2,6,10,14-nonadecatetraenoyl)pyrrolidine, were selected as test compounds and emulsified in 2.5% decaglyn mixture, and 12.5 to 100 mg/kg (dose volume 0.2 ml/100 g-weight) was administered orally 30 minutes before administration of ethanol.

[1] = 100 mg/kg, 15 hours after pylorus ligation
[2] = 100 mg/kg, N 4 (Compound B), N 10 (Cimetidine)
[3] = 12.5 mg/kg orally 30 minutes before ethanol
[4] = 25 mg/kg orally 30 minutes before ethanol
[5] = 50 mg/kg orally 30 minutes before ethanol
[6] = 100 mg/kg orally 30 minutes before ethanol

## CC(C)[N+](C)(CCOC(=O)C1c2ccccc2Oc2ccccc21)C(C)C [Propantheline bromide, reference compound]
Pyloric Ligation Ulcer; 30 mg/kg, N 10
  Grade Index 0 (number of animals): 8
  Grade Index I (number of animals): 2
  Grade Index II (number of animals): 0
  Grade Index III (number of animals): 0
  Grade Index IV (number of animals): 0
  Grade Index V (number of animals; perforation): 0
Pyloric Ligation Ulcer; 30 mg/kg, 15 hours after pylorus ligation
  Grade Index G.I. mean ± S.E.: 0.2 ± 0.1

## CC(=O)CCC=C(C)CCC=C(C)CCC=C(C)CCC=C(C)C(=O)N(CCO)CCO [Compound E]
Gastric acid secretion
  inhibition in vivo at 100 mg/kg: 52.2%

## CC(=O)CCC=C(C)CCC=C(C)CCC=C(C)CCC=C(C)C(=O)N(C)C [Compound D]
Gastric acid secretion
  inhibition in vivo at 100 mg/kg: 52.6%
In vivo
  LD50: > 5000 mg/kg

## CC(=O)CCC=C(C)CCC=C(C)CCC=C(C)CCC=C(C)C(=O)n1ccnc1 [Compound H]
Gastric acid secretion
  inhibition in vivo at 100 mg/kg: 49.1%

## CCC(=O)NCC(C)=CCCC(C)=CCCC(C)=CCCC(C)=CCCC(C)=O [Compound K]
Gastric acid secretion
  inhibition in vivo at 100 mg/kg: 50.2%

## CCN(CC(C)=CCCC(C)=CCCC(C)=CCCC(C)=CCCC(C)=O)C(C)=O [Compound L]
Gastric acid secretion
  inhibition in vivo at 100 mg/kg: 62.6%

## CC(=O)CCC=C(C)CCC=C(C)CCC=C(C)CCC=C(C)C(=O)N1CCOCC1 [Compound A]
Gastric acid secretion
  inhibition in vivo at 100 mg/kg: 52.9%

## CCN(CC)C(=O)C(C)=CCCC(C)=CCCC(C)=CCCC(C)=CCCC(C)=O [Compound B, N-(2,6,10,14-tetramethyl-18-oxo-2,6,10,14-nonadecatetraenoyl)diethylamine]
Gastric acid secretion
  inhibition in vivo at 100 mg/kg: 83.5%
Gastric acid secretion; rat, in vivo
  action of inhibiting acid secretion (in words): powerful action of inhibiting acid secretion
Pyloric Ligation Ulcer; 25 mg/kg, N 6
  Grade Index 0 (number of animals): 2
  Grade Index I (number of animals): 1
  Grade Index II (number of animals): 2
  Grade Index III (number of animals): 0
  Grade Index IV (number of animals): 0
  Grade Index V (number of animals; perforation): 1
Pyloric Ligation Ulcer; 25 mg/kg, to the duodenum during pylorus ligation, 15 hours
  Grade Index G.I. mean ± S.E.: 1.7 ± 0.7
Pyloric Ligation Ulcer; 50 mg/kg, N 6
  Grade Index 0 (number of animals): 2
  Grade Index I (number of animals): 3
  Grade Index II (number of animals): 0
  Grade Index III (number of animals): 0
  Grade Index IV (number of animals): 0
  Grade Index V (number of animals; perforation): 1
Pyloric Ligation Ulcer; 50 mg/kg, to the duodenum during pylorus ligation, 15 hours
  Grade Index G.I. mean ± S.E.: 1.3 ± 0.8
Pyloric Ligation Ulcer; [1]
  Grade Index G.I. mean ± S.E.: 0.0 ± 0.0
Pyloric Ligation Ulcer; [2]
  Grade Index 0 (number of animals): 4
  Grade Index I (number of animals): 0
  Grade Index II (number of animals): 0
  Grade Index III (number of animals): 0
  Grade Index IV (number of animals): 0
  Grade Index V (number of animals; perforation): 0
Pyloric Ligation Ulcer; 200 mg/kg, N 4
  Grade Index 0 (number of animals): 4
  Grade Index I (number of animals): 0
  Grade Index II (number of animals): 0
  Grade Index III (number of animals): 0
  Grade Index IV (number of animals): 0
  Grade Index V (number of animals; perforation): 0
Pyloric Ligation Ulcer; 200 mg/kg, to the duodenum during pylorus ligation, 15 hours
  Grade Index G.I. mean ± S.E.: 0.0 ± 0.0
Ethanol-Induced Ulcer; [3]
  Inhibition (%) of ulcer index: 82.6%
  Ulcer Index Mean ± S.E. (mm): 10.1 ± 5.9 mm
Ethanol-Induced Ulcer; [4]
  Inhibition (%) of ulcer index: 97.6%
  Ulcer Index Mean ± S.E. (mm): 1.4 ± 1.0 mm
Ethanol-Induced Ulcer; [5]
  Inhibition (%) of ulcer index: 90.4%
  Ulcer Index Mean ± S.E. (mm): 5.6 ± 2.9 mm
Ethanol-Induced Ulcer; [6]
  Inhibition (%) of ulcer index: 97.8%
  Ulcer Index Mean ± S.E. (mm): 1.3 ± 1.0 mm

## CN/C(=N/CCSCc1nc[nH]c1C)NC#N [Cimetidine, reference compound]
Pyloric Ligation Ulcer; [1]
  Grade Index G.I. mean ± S.E.: 3.3 ± 0.7
Pyloric Ligation Ulcer; [2]
  Grade Index 0 (number of animals): 2
  Grade Index I (number of animals): 0
  Grade Index II (number of animals): 1
  Grade Index III (number of animals): 2
  Grade Index IV (number of animals): 0
  Grade Index V (number of animals; perforation): 5

## CCOC(=O)C=C(C)CCC=C(C)CCC=C(C)CCC=C(C)C(=O)N(CC)CC [Compound M]
Gastric acid secretion
  inhibition in vivo at 100 mg/kg: 80.6%

## CC(=O)CCC=C(C)CCC=C(C)CCC=C(C)CCC=C(C)C(=O)N1CCCC1 [Compound F, N-(2,6,10,14-tetramethyl-18-oxo-2,6,10,14-nonadecatetraenoyl)pyrrolidine]
Gastric acid secretion
  inhibition in vivo at 100 mg/kg: 76.1%
Ethanol-Induced Ulcer; [3]
  Inhibition (%) of ulcer index: 63.2%
  Ulcer Index Mean ± S.E. (mm): 21.4 ± 8.2 mm
Ethanol-Induced Ulcer; [4]
  Inhibition (%) of ulcer index: 94.8%
  Ulcer Index Mean ± S.E. (mm): 3.0 ± 1.9 mm
Ethanol-Induced Ulcer; [5]
  Inhibition (%) of ulcer index: 85.7%
  Ulcer Index Mean ± S.E. (mm): 8.3 ± 3.4 mm
Ethanol-Induced Ulcer; [6]
  Inhibition (%) of ulcer index: 97.1%
  Ulcer Index Mean ± S.E. (mm): 1.7 ± 0.9 mm
In vivo
  LD50: > 5000 mg/kg

## CCNC(=O)C(C)=CCCC(C)=CCCC(C)=CCCC(C)=CCCC(C)=O [Compound C]
Gastric acid secretion
  inhibition in vivo at 100 mg/kg: 63.2%

## CC(=O)CCC=C(C)CCC=C(C)CCC=C(C)CCC=C(C)C(=O)N1CC=CC1 [Compound I]
Gastric acid secretion
  inhibition in vivo at 100 mg/kg: 43.9%

## CC(=O)CCC=C(C)CCC=C(C)CCC=C(C)CCC=C(C)CNC(C)=O [Compound J]
Gastric acid secretion
  inhibition in vivo at 100 mg/kg: 53%
